Reference: patent US20090325952A1, “PYRAZOLO[3,4-B]PYRIDINE COMPOUNDS, AND THEIR USE AS PDE4 INHIBITORS” (Glaxo Group Limited, priority 2006, published 2009)

Assays:
[1] = system: TNF-α (TNF-alpha) production in human PBMC (peripheral blood mononuclear cells); test: Inhibition of TNF-alpha production in human PBMC assay (MSD technology); type: cell-based; details: Homo sapiens, PBMC, LPS stimulated, measured and/or mean of n measurements, read-out: PBMC pIC50 (MSD assay), inhibition of TNF-α production (converted)
Protocol: A 96-well plate (96 MicroWell™ Plates Nunclon™Δ-High Flange Design, Fisher Scientific UK, Bishop Meadow Road, Loughborough LE 11 5 RG, Leicestershire, UK) is prepared by initially adding to column 1 ca. 10 mM of test compound dissolved in DMSO. […] The compound is further diluted with DMSO into columns 2 to 9 by 8 successive 3-fold dilutions using the Biomek® FX Laboratory Automation Workstation (Beckman Coulter, Inc., 4300 N. Harbor Boulevard, P.O. Box 3100, Fullerton, Calif. 92834-3100, USA). Column 10 is used as a DMSO negative control (High Signal, 0% response), whilst column 11, which contains 10 mM of the PDE4 inhibitor roflumilast, is used as a positive control (Low Signal, 100% response). About 1 μl (about 1 ul) of compound is transferred to the compound plate using the Biomek® FX.
PBMC cells (peripheral blood mononuclear cells) are prepared from heparinised human blood (using 1% v/v Heparin Sodium 10001 U/ml Endotoxin Free, Leo Laboratories Ltd., Cashel Road, Dublin 12. Ireland, Cat No: PL0043/0149) from normal volunteers using the Accuspin™ System-Histopaque®-1077 essentially (Sigma-Aldrich Company Ltd., The Old Brickyard New Rd, Gillingham, Dorset SP8 4XT, UK). About 20 ml of blood is overlaid onto 15 ml Histopaque® in Accuspin™ tubes. The tube is then centrifuged at about 800 g for ca. 20 minutes. The cells are collected from the interface, washed by centrifugation (ca. 1300 g, ca. 10 minutes) and resuspended in RPMI1640 medium (Low endotoxin RPMI1640 medium, Cat No: 31870-025, Invitrogen Corporation Invitrogen Ltd, 3 Fountain Drive, Inchinnan Business Park, Paisley PA4 9RF, UK) containing 10% foetal calf serum, 1% L-glutamine (Invitrogen Corporation, Cat No: 25030024) and 1% penicillin/streptomycin (Invitrogen Corporation, Cat No: 15140-122). Viable cells are counted by trypan blue staining and diluted to 1×10^6 viable cells/ml. About 50 μl (about 50 ul) of diluted cells and about 75 μl (about 75 ul) of LPS (ca. 1 ng/ml final; Sigma Cat No: L-6386) are added to the compound plate, which is then incubated at 37° C., 5% CO2, for 20 hours.
The supernatant is removed and the concentrations of TNF-α are determined by electrochemiluminescence assay using the Meso Scale Discovery (MSD) technology (Meso Scale Discovery, 9238 Gaither Road, Gaithersburg, Md. 20877, USA). See the “TNF-α (TNF-alpha) MSD Assay” described below for typical details.
For the following Examples, which are compounds of formula (I) or salts thereof, and generally when using the one of the above assays, or a generally similar or generally analogous assay, the measured and/or mean pIC50 values for inhibition of TNF-α (TNF-alpha) production in PBMCs are generally as follows (subject to a possibly-large variability or error):
Using the Biomek FX, 25 μl (25 ul) of MSD Human Serum Cytokine Assay Diluent (Meso Scale Discovery, 9238 Gaither Road, Gaithersburg, Md. 20877) is added to a 96-well High-Bind MSD plate pre-coated with anti-hTNF alpha capture antibody (MA6000) and then incubated for 24 hours at 4° C. to prevent non-specific binding. About 20 μl (ul) of supernatant from the PBMC plate or about 40 μl (ul) of supernatant from the whole blood (WB) plate are then transferred from columns 1-11 to columns 1-11 of the MSD plate using the Biomek FX. About 20 μl (ul) of TNF-α standard (Cat No. 210-TA; R&D Systems Inc., 614 McKinley Place NE, Minneapolis, Minn. 55413, USA) are added to column 12 of the MSD plate to generate a standard calibration curve (about 0 to 30000 pg/ml final).
For the Whole Blood assay, plates are washed after 2 hours shaking with a Skanwasher 300 version B (Skatron Instruments AS. PO Box 8, N-3401 Lier, Norway). About 40 μl (ul) of diluted sulfo-TAG antibody (ca. […] final) is added, the plates are shaken at room temperature for 1 hours, and the plates washed again as above. About 150 μl (ul) of Read Buffer T (2×) is added to the plates, which are then read on a MSD Sector 6000. […]

[2] = target: T1, PDE4B (human recombinant) (Homo sapiens, UniProt Q07343); test: Inhibition of PDE4B activity (FP and/or SPA assay); type: biochemical; details: generally FP assay; one reading or average of n readings; read-out: PDE4B pIC50 (generally in FP assay) (±about 0.5) (converted)
T1 construct: made in house; host or cells: Saccharomyces cerevisiae strain GL62 (PDE-deficient yeast)
Excerpt: Human recombinant PDE4B, in particular the 2B splice variant thereof (HSPDE4B2B), is disclosed in WO 94/20079 and also M. M. McLaughlin et al., “A low Km, rolipram-sensitive, cAMP-specific phosphodiesterase from human brain: cloning and expression of cDNA, biochemical characterisation of recombinant protein, and tissue distribution of mRNA”, J. Biol. Chem., 1993, 268, 6470-6476. For example, in Example 1 of WO 94/20079, human recombinant PDE4B is described as being expressed in the PDE-deficient yeast Saccharomyces cerevisiae strain GL62, e.g. after induction by addition of 150 uM CuSO4, and 100,000×g supernatant fractions of yeast cell lysates are described for use in the harvesting of PDE4B enzyme.
The ability of compounds to inhibit catalytic activity at PDE4B or 4D (human recombinant), PDE3 (from bovine aorta), PDE5 (human recombinant) or PDE6 (from bovine retina) can optionally be determined by Scintillation Proximity Assay (SPA) in a 96-well format.
Test compounds (as a solution in DMSO, suitably about 2 microlitre (ul) volume of DMSO solution) are preincubated at ambient temperature (room temperature, e.g. 19-23° C.) in Wallac Isoplates (code 1450-514) with PDE enzyme in 50 mM Tris-HCl buffer pH 7.5, 8.3 mM MgCl2, 1.7 mM EGTA, 0.05% (w/v) bovine serum albumin for 10-30 minutes (usually 30 minutes). The enzyme concentration is adjusted so that no more than 20% hydrolysis of the substrate defined below occurs in control wells without compound, during the incubation. For the PDE3, PDE4B and PDE4D assays, [5′,8-^3H]Adenosine 3′,5′-cyclic phosphate (Amersham Pharmacia Biotech, code TRK.559; or Amersham Biosciences UK Ltd, Pollards Wood, Chalfont St Giles, Buckinghamshire HP8 4SP, UK) is added to give 0.05uCi per well and about 10 nM final concentration. For the PDE5 and PDE6 assays, [8^−3H]Guanosine 3′,5′-cyclic phosphate (Amersham Pharmacia Biotech, code TRK.392) is added to give 0.05uCi per well and about 36 nM final concentration. Plates containing assay mixture, suitably approx. 100 ul volume of assay mixture, are mixed on an orbital shaker for 5 minutes and incubated at ambient temperature for 1 hour. Phosphodiesterase SPA beads (Amersham Pharmacia Biotech, code RPNQ 0150) are added (about 1 mg per well) to terminate the assay. Plates are sealed and shaken and allowed to stand at ambient temperature for 35 minutes to 1 hour (suitably 35 minutes) to allow the beads to settle. Bound radioactive product is measured using a WALLAC TRILUX 1450 Microbeta scintillation counter. For inhibition curves, 10 concentrations (e.g. 1.5 nM-30 uM) of each compound are assayed. Curves are analysed using ActivityBase and XLfit (ID Business Solutions Limited, 2 Ocean Court, Surrey Research Park, Guildford, Surrey GU2 7QB, United Kingdom) Results are expressed as pIC50 values.
The ability of compounds to inhibit catalytic activity at PDE4B (human recombinant) or PDE4D (human recombinant) can optionally be determined by IMAP Fluorescence Polarisation (FP) assay (IMAP Explorer kit, available from Molecular Devices Corporation, Sunnydale, Calif., USA; Molecular Devices code: R8062) in 384-well format.
The IMAP FP assay is able to measure PDE activity in an homogenous, non-radioactive assay format. The FP assay uses the ability of immobilised trivalent metal cations, coated onto nanoparticles (tiny beads), to bind the phosphate group of Fl-AMP that is produced on the hydrolysis of fluorescein-labelled (Fl) cyclic adenosine mono-phosphate (Fl-cAMP) to the non-cyclic Fl-AMP form. […] Binding of Fl-AMP product to the beads (coated with the immobilised trivalent cations) slows the rotation of the bound Fl-AMP and leads to an increase in the fluorescence polarisation ratio of parallel to perpendicular light. Inhibition of the PDE reduces/inhibits this signal increase. […]

T1 sequence (Q07343 1-564 isoform Q07343-2): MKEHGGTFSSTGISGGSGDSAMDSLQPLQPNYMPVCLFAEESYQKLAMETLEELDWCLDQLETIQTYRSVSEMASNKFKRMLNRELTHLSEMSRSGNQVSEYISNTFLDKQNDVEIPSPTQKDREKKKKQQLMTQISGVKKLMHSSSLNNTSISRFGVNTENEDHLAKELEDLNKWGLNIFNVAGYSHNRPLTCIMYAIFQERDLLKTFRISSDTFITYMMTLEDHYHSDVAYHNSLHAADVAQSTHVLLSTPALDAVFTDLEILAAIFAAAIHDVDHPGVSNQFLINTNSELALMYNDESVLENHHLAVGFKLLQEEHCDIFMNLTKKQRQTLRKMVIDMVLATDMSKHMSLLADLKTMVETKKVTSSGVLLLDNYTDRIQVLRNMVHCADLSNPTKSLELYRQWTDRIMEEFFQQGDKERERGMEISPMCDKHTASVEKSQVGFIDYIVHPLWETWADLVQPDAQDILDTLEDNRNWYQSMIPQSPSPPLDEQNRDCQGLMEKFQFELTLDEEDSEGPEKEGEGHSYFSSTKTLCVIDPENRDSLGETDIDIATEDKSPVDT

IC50 [2]: ~0.0794 nM
SMILES: CCc1nc2c(cnn2CC)c(NC2CCN(C(N)=O)CC2)c1CNC(=O)c1ccc(CCCCOCCCCN2CCOCC2)cc1 [Example 23, 4-({1,6-diethyl-5-[({[4-(4-{[4-(4-morpholinyl)butyl]oxy}butyl)phenyl]carbonyl}amino)methyl]-1H-pyrazolo[3,4-b]pyridin-4-yl}amino)-1-piperidinecarboxamide]
IC50 [1]: ~0.631 nM
